# From patent US9587001B2, “Conjugated knottin mini-proteins containing non-natural amino acids” (priority 2012, dated 2017)
# Starred links: 1 amine or outer side, 2 acyl side, 3 side chain; linkers in the order of their positions; H or OH if unused. Positions of bridges follow the written chain, without caps; N, C: chain ends. Non-standard residues stand in square brackets, D forms with d. Residues, ends and D or L forms follow the SMILES beside them. Primed or numbered codes have the meaning given here. Chains are numbered I, II in the order given. No end group written: not given here. AO″ = AO: aminooxy residue, 2-amino-3-(2-(aminooxy)acetamido)propanoic acid (side chain carries R'-O-NH2), O=C(CON[*:3])NC[C@H](N[*:1])C(=O)[*:2]; X1 = O=C(NCCCOCCCCOCCCNC(=O)c1ccc(C=NOCC(=O)[*:2])cc1)c1ccc(C=NOCC(=O)[*:1])cc1; Dap = NC[C@H](N)C(=O)O
# Key:
# [1] = test system: MDA231 (Human breast adenocarcinoma); assay: Inhibition of proliferation, MDA231 carcinoma line; type: cell-based; details: for Proliferation: Cell line: MDA231; for inhibition of tumor cell proliferation, comparison between dimers, monomer and Cilengitide: Table 3 results
# Procedure: (§1) Dimers of the present knottins with AO groups incorporated at different positions were prepared and conjugated with different linkages. There were tested for activity against carcinoma lines. As identified there, Dimer 1 is EETI 2.5F where the AO group was incorporated in place of Lys15, conjugated through the 17.3 Angstrom linker shown in FIG. 1B; Dimer 2 is EETI 2.5F, where the AO group was incorporated in place of Lys15, conjugated though the 68.5 Angstrom linker shown in FIG. 9. Dimer 3 is EETI 2.5F, where the AO group was incorporated at the C-terminus following residue 33, conjugated through a 17.3 Angstrom linker shown in FIG. 1B; Dimer 4 is EETI 2.5F, where the AO group was incorporated at the C-terminus following residue 33, conjugated through the 68.5 Angstrom linker shown in FIG. 9. […] Also, it was observed that the length of the linkage had only a minor effect on binding. Binding, of course, it correlated with the activity in proliferation and apoptosis.
# [2] = test system: SKOV 3 (Ovarian adenocarcinoma); assay: Inhibition of proliferation, SKOV 3 carcinoma line; type: cell-based; details: Cell line: SKOV 3
# Procedure: as §1
# U87MG cells [3] = type: cell-based, human; details: for EC50: U87MG cells on fibronectin coated plates, 1 h at 37° C., read-out: Adhesion EC50
# Procedure: FIG. 3A is a graph measuring comparative inhibition of adhesion of U87MG cells treated with dimeric and monomeric 2.5F to fibronectin, a component of ECM. Fibronectin coated plates were incubated with U87MG cells with the indicated concentrations of peptides. Adherent cells remaining after several wash steps were quantified with crystal violet staining by absorbance at 600 nm. […] Values were normalized to negative control containing no competing peptides.
# FIG. 7 is a graph measuring comparative inhibition of adhesion of U87MG cells treated with dimeric and monomeric 2.5F or Cilgenitide to fibronectin, a component of ECM. Fibronectin coated plates were incubated with U87MG cells with the indicated concentrations of peptides. Adherent cells remaining after several wash steps were quantified with crystal violet staining by absorbance at 600 nm. Values were normalized to negative control containing no competing peptides.
# Varying concentrations of peptides were added to 4×10^4 cells in 100 μl of IBB, incubated for 1 h at 37° C., 5% CO2, and gently washed with Dulbecco's PBS (DPBS, Invitrogen). Remaining adherent cells were incubated with 100 μl of 0.2% crystal violet and 10% ethanol for 10 min at room temperature, washed in DPBS and solubilized with 100 μl/well of a 50:50 mixture of 100 mM sodium phosphate, pH 4.5 and ethanol for 10 min. The absorbance at 600 nm was measured using Synergy HT microplate reader (BioTek).
# [4] = test system: MDA231 (Human breast adenocarcinoma); assay: Apoptosis (Caspase-3), MDA231 carcinoma line; type: cell-based; details: Cell line: MDA231
# Procedure: as §1
# [5] = test system: U87MG cells expressing αvβ3, αvβ5, and α5β1 integrins; assay: Competition binding assay to U87MG cells (flow cytometry); set-up: species or system human; details: for IC50: 4° C. for 10 h, average of three experiments; for increase of apparent binding affinity of dimer compared to the monomer: from IC50 values
# Procedure: FIG. 2B is a graph showing a competition assay of EETI-based integrin binding proteins 2.5F dimer and 2.5F monomer to U87MG cells, as measured by flow cytometry. Alexa488-labeled EETI 2.5F was used as a competitor. Monomeric EETI 2.5F with an introduced aminooxy residue is designated as 2.5F_AO.
# FIG. 2C is a graph showing a competition assay of AgRP-based integrin binding proteins: dimeric 7C and monomeric 7C to U87MG cells, as measured by flow cytometry. Alexa488-labeled AgRP 7C was used as a competitor. Monomeric AgRP 7C with aminooxy residue is designated as Monomeric 7C_AO.
# Alexa488-labeled EETI 2.5F was used as a competitor.
# Competition binding assays were performed to measure the relative binding affinities of engineered knottins to U87MG cells expressing αvβ3, αvβ5, and α5β1 integrins (FIG. 2A, 2B, 2C). 2×10^5 U87MG cells were incubated at 4° C. for 10 h in integrin binding buffer (20 mM Tris pH 7.5, 1 mM MgCl2, 1 mM MnCl2, 2 mM CaCl2, 100 mM NaCl, and 0.1% BSA) and varying concentrations of the peptides with 0.25 nM of Alexa488-labeled EETI 2.5F as a competitor for dimeric and monomeric EETI 2.5F, and 5 nM of Alexa488-labeled AgRP 7C as a competitor for dimeric and monomeric AgRP 7C. Half-maximal inhibitory concentration (IC50) values were determined by nonlinear regression analysis using KaleidaGraph (Synergy Software), and are presented as the average of three separate experiments.
# U87MG cells [6] = assay: U87MG cell morphology after knottin treatment (microscope images); type: cell-based, human; details: 500 nM, 24 h, DMEM media with 4% FBS
# Procedure: FIG. 3B is a panel of microscope images of the U87MG cells on culture plates after 24 h treatment with 500 nM of the indicated knottins.
# U87MG cells [7] = assay: Cytotoxicity / inhibition of proliferation of U87MG cells (AlamarBlue); type: cell-based, human
# Procedure: FIG. 4A is a bar graph showing time dependent cytotoxicity of U87MG cells after treatment with the indicated knottin mini-proteins. Cytotoxicity was monitored by incubating U87MG cells on culture plates with 500 nM of each knottin in 4% FBS media at 37° C. and 5% CO2 and measuring cell viability at 24, 48, and 72 h after the treatment using the AlamarBlue indicator dye.
# FIG. 4B is a bar graph showing dose dependent cytotoxicity of U87MG cells assessed by treating with different concentrations of knottins for 72 h and measuring cell viability using the AlamarBlue indicator dye.
# FIG. 8 is a bar graph showing dose dependent cytotoxicity of U87MG cells assessed by treating with different concentrations of dimeric or monomeric 2.5F or Cilgenitide for 72 h and measuring cell viability using the AlamarBlue indicator dye.
# [8] = 0.25 nM Alexa488-labeled EETI 2.5F as competitor
Compound,Proliferation [1],"inhibition of tumor cell proliferation, comparison between dimers, monomer and Cilengitide [1]",Proliferation [2],inhibition of U87MG cell adhesion to fibronectin (in words) (U87MG cells [3]; fibronectin-coated plates),Apoptosis (Caspase-3) [4],"IC50 [5, 8] [nM]",EC50 (U87MG cells [3]) [nM],U87MG cell morphology (U87MG cells [6]),"inhibition of U87MG cell proliferation (U87MG cells [7]; 10 nM, 72 hours) [%]","inhibition of U87MG cell proliferation (U87MG cells [7]; 100 nM, 72 hours) [%]","inhibition of U87MG cell proliferation (U87MG cells [7]; 500 nM, 24 h) [%]","inhibition of U87MG cell proliferation (U87MG cells [7]; 500 nM, 48 h) [%]","inhibition of U87MG cell proliferation (U87MG cells [7]; 500 nM, 72 h) [%]","inhibition of U87MG cell proliferation (U87MG cells [7]; 1000 nM, 72 hours) [%]",increase of apparent binding affinity of dimer compared to the monomer [5],further results
"2.5F Dimer2: EETI 2.5F, AO in place of Lys15, conjugated though the 68.5 Angstrom linker shown in FIG. 9 (GCPRPRGDNPPLTC[AO″]QDSDCLAGCVCGPNGFCG; ends and bridges not checked; also: dimer (Dimer2) conjugated through 68.5 Angstrom linker via AO15)",Strong inhibition,more strongly inhibited tumor cell proliferation compared to Dimers 3 and 4,Strong inhibition,–,–,–,–,–,–,–,–,–,–,–,–,–
"CC(C)[C@H]1C(=O)N[C@@H](CCCN=C(N)N)C(=O)NCC(=O)N[C@@H](CC(=O)O)C(=O)N[C@H](Cc2ccccc2)C(=O)N1C [Cilengitide, reference compound]",Weak inhibition,–,–,does not inhibit,Moderate induction,–,–,–,–,–,–,–,–,–,–,–
"CC(C)C[C@@H]1NC(=O)[C@@H]2CSSC[C@@H](C(=O)NCC(=O)O)NC(=O)[C@H](Cc3ccccc3)NC(=O)CNC(=O)[C@H](CC(N)=O)NC(=O)[C@@H]3CCCN3C(=O)CNC(=O)[C@@H]3CSSC[C@H](NC(=O)[C@H]([C@@H](C)O)NC(=O)[C@H](CC(C)C)NC(=O)[C@@H]4CCCN4C(=O)[C@@H]4CCCN4C(=O)[C@H](CC(N)=O)NC(=O)[C@H](CC(=O)O)NC(=O)CNC(=O)[C@H](CCCNC(=N)N)NC(=O)[C@@H]4CCCN4C(=O)[C@H](CCCNC(=N)N)NC(=O)[C@@H]4CCCN4C(=O)[C@@H](NC(=O)CN)CSSC[C@H](NC(=O)CNC(=O)[C@H](C)NC1=O)C(=O)N[C@@H](C(C)C)C(=O)N3)C(=O)N[C@@H](CCCCN)C(=O)N[C@@H](CCC(N)=O)C(=O)N[C@@H](CC(=O)O)C(=O)N[C@@H](CO)C(=O)N[C@@H](CC(=O)O)C(=O)N2 [EETI 2.5F] (H-GCPRPRGDNPPLTCKQDSDCLAGCVCGPNGFCG-OH; disulfide 2-24, 14-26, 20-32)",Weak inhibition,–,–,able to inhibit,Moderate induction,1.64 ± 0.03,180 ± 14,rounded morphology,15,30,37,44,50,60,–,–
"I: GCPRPRGDNPPLTC[Dap]QDSDCLAGCVCGPNGFCG / II: GCPRPRGDNPPLTC[Dap]QDSDCLAGCVCGPNGFCG (disulfide I:2-I:24, I:14-I:26, I:20-I:32, II:2-II:24, II:14-II:26, II:20-II:32; linker I:15-II:15 via X1) [EETI 2.5F Dimer]",Strong inhibition,more strongly inhibited tumor cell proliferation compared to Dimers 3 and 4,Strong inhibition,able to inhibit,Strong induction,0.036 ± 0.002,8 ± 2,rounded morphology,28,52,53,68,69,70,approximately 46 fold,"more effective in preventing U87MG cell adhesion compared to the monomer (U87MG cells [3]; fibronectin-coated plates): 100 fold; more potent at inhibiting cell proliferation compared to Cilengitide (U87MG cells [7]; U87MG cells, 72 h): 100 fold"
"I: GCVRLHESCLGQQVPCCDPAATCYCYGRGDNDLRCYC[Dap] / II: GCVRLHESCLGQQVPCCDPAATCYCYGRGDNDLRCYC[Dap] (disulfide I:2-I:17, I:9-I:23, I:16-I:37, I:25-I:35, II:2-II:17, II:9-II:23, II:16-II:37, II:25-II:35; linker I:38-II:38 via X1) [AgRP 7C Dimer]",–,–,–,–,–,–,–,–,–,–,–,–,–,–,~4 fold,IC50 ([5]; 5 nM Alexa488-labeled AgRP 7C as competitor): 3.2 ± 0.6 nM
"scrambled EETI FNRDG monomer [FNRDG_AO, reference compound]",–,–,–,not able to inhibit cell adhesion,–,–,–,–,–,–,–,–,–,–,–,binding (in words) ([5]; scrambled controls): negligible binding; inhibition of U87MG cell proliferation (in words) (U87MG cells [7]; scrambled controls): did not induce significant inhibition
